# Data: patent US20080260714A1, “Fibrin Compositions Containing Strontium Compounds” (BAXTER INTERNATIONAL INC., priority 2007, published 2008)
# Columns and labels:
# SaOS-2 cell = tested on: SaOS-2 cell
# Method: For the initial experiments, cells were seeded on the surface of clots.
# [1] = tested on: osteosarcoma cell line UMR-106; conditions: for PTH bioactivity: 24 h pre-incubation of UMR-106 cells with 20 mM salt prior to TGplPTH treatment, five experiments; for synergistic effect with PTH in generation of cAMP: UMR-106 osteoblast cells, 20 mM salt
# Method: The present example describes in vitro studies on rat osteosarcoma cells to investigate if a combination of parathyroid hormone (PTH) and Strontium (used as SrCl2) on activation of bone formation factors like increased cAMP production in osteoblasts.
# The osteosarcoma cell line UMR-106 (NewLab Bioquality AG, Erkrath, Germany) was used to perform the bioassay.
# UMR-106 cells were seeded in growth medium at a density of 30000 cells/cm^2 and incubated at 37° C./8.0% CO2 After 24 hours, medium was exchanged with either fresh medium, medium containing 20 mM SrCl2 or medium containing 20 mM CaCl2. Cells were further incubated at 37° C./8.0% CO2 for 24 hours. Cells were harvested according to the following procedure:
# Cells were washed twice with HBSS and detached from the surface using 6 ml trypsine/EDTA for 3 min at room temperature. Trypsin digestion was stopped with 12 ml growth medium. Following centrifugation (3 min, 1000 rpm, RT) cells were resuspended in 12 ml starvation medium and counted with a CASY cell counter. The rate of dead cells was below 10% in every experiment. Cells were resuspended to a final concentration of 1.6×10^6 cells/ml in starvation medium. 50 μl of cell suspension was transferred into each well of a 96-well plate and incubated for 30 min at 37° C., 8.0% CO2.
# Samples were diluted in freshly prepared starvation medium containing 2 mM IBMX (SI medium). For preparation of SI-medium 30 μl of a 0.67M IBMX stock in DMSO was added to 10 ml of starvation medium.
# All sample dilutions were prepared with this medium to inhibit phosphodiesterase activity in UMR-106 cells (Janik, P., 1980; Chasin M. and Harris, D. N., 1976). 50 μl of diluted samples (as indicated in results) were added to the cells after 30 min incubation at 37° C. For cAMP production cells were incubated for 1 h at 37° C., 8.0% CO2. Each sample concentration was added to cells at least in duplicates following cAMP analysis in duplicates.
# Cell lysis and dilution of cAMP For extraction of cAMP 100 μl of cell suspension containing PTH was incubated with 25 μl (final dilution 1:5) lysis reagent solvent 1A that is part of the cAMP Biotrak EIA kit (GE Healthcare). For total lysis, cells were shaken for 15 min at 500 rpm at room temperature. […]
# Data analysis. The optical density was determined in a plate reader (Synergy HT) by measuring the absorbance of the samples at 450 nm using the software KC4. […]
# cAMP concentration of the samples. Taking into account the dilution factor (20×) the produced cAMP amounts were calculated using the parameters (slope and intercept) of the standard curve.
# Preparation of Samples for Bioassay Analysis. […] For all samples and all dilutions, mean values of OD450, standard deviations, cAMP concentrations and coefficients of variations were calculated.
# [2] = tested on: human osteoblast-like cells (SaOS-2); assay: Alamar Blue proliferation of cells grown on fibrin clots; type: cell-based; conditions: SaOS-2 on clots up to 7 days; Sr salt in thrombin dilution buffer; compared to normal clot with 20 mM CaCl2
# Method: (§1) For in-vitro experiments, the clots were prepared by pipetting 150 μl of the fibrinogen solution to the wells of a 24 well plate. The plate was put on plate shaker to ensure an even distribution over the well bottom. 150 μl of the thrombin solution was then added to the well and the plate was put on a plate shaker to ensure homogeneous clots. A human osteoblast-like cell line (SaoS-2) was cultured on the clots for up to 7 days to see if any differences in cell proliferation/cell differentiation could be observed.
# [3] = tested on: human osteoblast-like cells (SaOS-2); assay: alkaline phosphatase production of cells grown on fibrin clots; type: cell-based; conditions: SaOS-2 on clots containing strontium; production over 30 minutes; preliminary result
# Method: as §1
# These experiments are being repeated with a 14 day investigative period.
# [4] = turbidimetric analysis of clots; type: physicochemical; conditions: strontium containing clots in comparison to calcium containing clots
# Method: In addition to the cell studies observation, turbidmetric analysis was carried out to examine if the clot structure was altered as a result of the strontium (FIG. 4) The clot turbidity is directly proportional to average cross-sectional area of the fibres, therefore the more turbid the clot the greater the fiber diameter.
SMILES,"time at which cell death occurs (SaOS-2 cell; SaOS-2, 12.5 mM CaCl2 in medium) [h]","cell survival / proliferation (MTS assay) (SaOS-2 cell; SaOS-2 on tissue culture plastic, medium with 12.5 mM Sr or Ca)",PTH bioactivity [1],synergistic effect with PTH in generation of cAMP [1],proliferation (Alamar Blue) [2],alkaline phosphatase expression [3],clot turbidity (kinetics and absorbance) [4]
"[Ca+2].[Cl-].[Cl-] [CaCl2, calcium chloride, reference compound]",≤ 24,Cell death,no change in PTH bioactivity,No such effect,,,
"[Cl-].[Cl-].[Sr+2] [SrCl2, Strontium Chloride]",,,twofold increased bioactivity,positive synergistic effect,significant increased proliferation,increase in alkaline phosphatase expression,very little difference in the kinetics and absorbance
CC(=O)[O-].CC(=O)[O-].[Sr+2] [Strontium Acetate],,,,,,appear not to be significant,
